From PubChem BioAssay (NCI)
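Compound exposure: 48 hours, 5 concentrations, 96-well plates. The concentration for 50% growth inhibition is given as GI50. TGI denotes the concentration required for complete inhibition of growth.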

Columns and labels:
Test in all cases: DTP human tumour cell line panel, 48 h
OVCAR-3 ovarian = system: OVCAR-3 ovarian
M14 melanoma = system: M14 melanoma
NCI-H23 lung = system: NCI-H23 lung
OVCAR-5 ovarian = system: OVCAR-5 ovarian
BT-549 breast = system: BT-549 breast
CCRF-CEM leukemia = system: CCRF-CEM leukemia
A498 renal = system: A498 renal
COLO 205 colon = system: COLO 205 colon
K-562 leukemia = system: K-562 leukemia
SNB-75 CNS = system: SNB-75 CNS

Row | Compound | GI50 (OVCAR-3 ovarian) | TGI (OVCAR-3 ovarian) | GI50 (M14 melanoma) | TGI (M14 melanoma) | GI50 (NCI-H23 lung) | TGI (NCI-H23 lung) | GI50 (OVCAR-5 ovarian) | TGI (OVCAR-5 ovarian) | GI50 (BT-549 breast) | TGI (BT-549 breast) | GI50 (CCRF-CEM leukemia) | TGI (CCRF-CEM leukemia) | GI50 (A498 renal) | TGI (A498 renal) | GI50 (COLO 205 colon) | TGI (COLO 205 colon) | GI50 (K-562 leukemia) | TGI (K-562 leukemia) | GI50 (SNB-75 CNS) | TGI (SNB-75 CNS)
1 | O=C(Nc1cccc(Cl)c1)c1ccc(NC2=C(Cl)C(=O)N(Cc3ccccc3)C2=O)cc1 | 6.08 µM | 13.8 µM | 16.6 µM | 37.3 µM | 13.6 µM | 27 µM | 24.8 µM | > 61.6 µM | 8.33 µM | 31.5 µM | 0.436 µM | 1.44 µM | 34.4 µM | 96.2 µM | 22.1 µM | > 57 µM | 2.58 µM | 8.69 µM |  | 
2 | COC1CC2CCC(C)C(O)(O2)C(=O)C(=O)N2CCCCC2C(=O)OC(C(C)CC2CCC(O)C(OC)C2)CC(=O)C(C)C=C(C)C(O)C(OC)C(=O)C(C)CC(C)/C=C/C=C/C=C1C (stereo not drawn) | 4.49 µM | 10.9 µM | 5.41 µM | 13.3 µM | 0.0688 µM | 15.5 µM | 6.41 µM | 14.3 µM | 0.00609 µM | 11 µM |  |  | < 0.005 µM | 6.86 µM | 5.64 µM | 12.9 µM | 4.94 µM | 32.3 µM | < 0.005 µM | 7.93 µM
3 | O=C(CNc1ccc2c(c1)C(=O)c1ccccc1C2=O)Nc1ccc2c(c1)C(=O)c1ccccc1C2=O | 0.71 µM | 1.83 µM | 0.712 µM | 2.04 µM | 0.304 µM | 1.09 µM | 1.84 µM | 3.4 µM | 0.641 µM | 1.99 µM |  |  | 1.62 µM | 3.16 µM | 1.26 µM | 2.94 µM |  |  | 1.79 µM | 4.3 µM
4 | COC(=O)C1=C(C(=O)ON)C2C=CC1(C(Cc1ccccc1)Nc1ccccc1)O2 (stereo not drawn) | 1.72 µM | 3.11 µM |  |  | 12 µM | 28.1 µM | 3.27 µM | 12.1 µM | 2.07 µM | 4.87 µM | 2.23 µM | 16.9 µM | 14.7 µM | 27.9 µM | 1.78 µM | 3.33 µM |  |  | 8.9 µM | 21.2 µM
5 | O=c1ccn(C2OC(CO/N=C/c3ccc(O)c(O)c3O)C(O)C2O)c(=O)[nH]1 (stereo not drawn) | 13.6 µM | 27.7 µM | 39 µM | > 100 µM | 22.6 µM | 49.6 µM | > 100 µM | > 100 µM | 68.4 µM | > 100 µM |  |  | 15.4 µM | 39.2 µM | 14.7 µM | 30.6 µM | 21.7 µM | 78.5 µM | 16.4 µM | 32.2 µM
6 | O=C1c2cc3c(cc2-c2c1c1ccc(Cl)cc1c(=O)n2CCCNCCO)OCO3 | 1.32 µM | 2.83 µM | 0.0574 µM | 1.67 µM | 0.0553 µM | 1.43 µM | 1.71 µM | 3.71 µM | 0.941 µM | 2.49 µM | 0.0347 µM | 1 µM | 1.27 µM | 2.65 µM | 1.09 µM | 2.6 µM | 0.108 µM | 0.355 µM |  | 
7 | COc1c(OC)c(OC)c2c(c1OC)c(=O)c1ccccc1n2C |  | > 100 µM |  | > 100 µM |  | > 100 µM |  | > 100 µM |  | > 100 µM |  |  |  | > 100 µM |  | > 100 µM |  | > 100 µM |  | > 100 µM
